Experimental data published in a melting point compilation (Tetko et al.; mined from patent text by program, amines drawn as free bases though some values may be those of a salt).

Row | Compound | melting point
1 | CCCCNC(=O)C(=O)NCCCCCO | 136 to 137 °C
2 | CCOC(=O)c1ncn2c1C(C)(C)Nc1ccccc1-2 | 145 to 149 °C
3 | CC(=O)NCC1CN(C(c2ccccc2)c2ccccc2)C1 | 117 to 119 °C
4 | CNC(=O)N(c1ccccc1)c1ccccc1 | 170 °C
5 | CC(=O)Nc1ccc(N)c(C(O)c2ccccc2Cl)c1 (stereo not given) | 137 to 138 °C
6 | O=C(OC1CCCCCCC1=O)c1ccccc1 (stereo not given) | 92 to 93 °C
7 | CC(C)Cn1c(SCc2ccccn2)nc2ccccc2c1=O | 91.7 to 93.2 °C
8 | CCCCC1OC(=O)COC1=O (stereo not given) | 37 to 39 °C
9 | CSC(=O)C(=O)c1cccc(NC=O)n1 | 163 to 165 °C
10 | CCOc1ccc(C=CC(=O)OC)cc1 | 68 to 70 °C
11 | COC(=O)C(Cc1ccccc1)NC(=O)C(CC(=O)O)NC(=O)CC(C)=O (stereo not given) | 118 to 121 °C
12 | CCCCCCN1CN(C)C=C1C(=O)NCCCCCCOc1ccc(OC)cc1 | 35 to 36 °C
13 | O=C(NCCSCc1cccc(I)c1)c1c(Cl)cccc1Cl | 75 to 78 °C
14 | CNC(=O)Oc1cc(C)c(NS(C)(=O)=O)c(C)c1 | 178 to 185 °C
15 | O=C(N(CCN(C(=O)C(F)(F)F)c1cccc2[nH]ccc12)Cc1ccccc1)C(F)(F)F | 174 to 177 °C
16 | COC(=O)[C@H](CSC)Nc1ncccc1[N+](=O)[O-] | 95 to 97 °C
17 | O=C(NCCCCn1cncn1)c1sc2ccccc2c1Cl | 103 to 105 °C
18 | C=CCN1CCCN(c2ccc(Cl)cc2C)C1=S | 101 to 103 °C
19 | CC(C)(C(=O)c1ccc(OCC(=O)O)cc1)N1CCN(c2ccncc2)CC1 | 278 to 279 °C
20 | CC(=O)c1ccc2c(c1)C(C(=O)Nc1cccc(C(=O)Nc3ccccc3)c1)C(=O)N2C (stereo not given) | 178 to 179 °C
21 | CCOC(=O)N(C)C(=O)N(O)C(C)c1cc(C)sc1C (stereo not given) | 111 to 112 °C

Row | Compound | melting point
22 | CC(C)C[C@H](NC(=O)[C@H](CC(C)C)N[C@H](CC(C)C)C(=O)OCc1ccccc1)C(=O)N[C@@H](C)C(N)=O | 133 to 134 °C
23 | CC12CC(F)C3C(CCC4=CC(=O)CCC43C)C1CCC2=O (stereo not given) | 162 to 164 °C
24 | COC(=O)c1cc(=O)c2cc(OC)cc(N)c2o1 | 145 to 147 °C
25 | O=C(O)c1cccc(N2CCc3ccccc32)c1 | 168 to 170 °C
26 | CCOC(=O)C(C)(C)Oc1ccc(-c2ccc(CCNC(=O)c3ccc(C)cc3)cc2)cc1 | 214 °C
27 | O=C1C=C(NC(=O)C(=O)c2cn(Cc3cccc(Cl)c3F)c3ccccc23)CO1 | 248 to 250 °C
28 | CC(Cc1cc2ccccc2[nH]1)(NC(=O)OC1C2CC3CC(C2)CC1C3)C(=O)NCC(N)c1ccccc1 (stereo not given) | 96 to 102 °C
29 | CC(=O)SCC(C(=O)N[C@@H](Cc1c[nH]c2ccccc12)C(=O)O)C(F)(F)F (stereo not given in full) | 140 to 143 °C
30 | O=C(c1cccs1)c1cnn2c(-c3cccc(N(C(=O)c4c(Cl)cccc4Cl)C(=O)c4c(Cl)cccc4Cl)c3)ccnc12 | 238 to 240 °C
31 | CN(C)C(=O)c1ccc2ccccc2c1/C=C/c1ccccc1 | 114 to 116 °C
32 | C1CCc2c(c3c(N4CCCC4)nc(N4CCCC4)nc3n2CCN2CCOCC2)C1 | 132 to 133 °C
33 | O=C(O)c1cc(S(=O)C(F)(F)F)c(Cl)cc1Cl (stereo not given) | 176 to 178 °C
34 | C=CCNc1nc(C=O)cs1 | 106 to 107 °C
35 | COc1ccc(NC(=O)c2ccccc2O)cc1 | 162 to 163 °C
36 | CCCCCCCCCCCCCCCCCC(=O)OC(CO)CO | 73 to 75 °C
37 | CCN(c1nc(F)ccc1[N+](=O)[O-])C1CCN(Cc2ccccc2)CC1 | 99 to 100 °C
38 | N#CC1(Cc2nnn[nH]2)C2CCCC1CCC2 (stereo not given) | 189 to 191 °C
39 | CP1(=O)c2ccccc2CN1c1ccc(Cl)c(Cl)c1 (stereo not given) | 152 to 154 °C
40 | O=c1oc2ccccc2c(O)c1C1CC(c2ccc(Oc3ccc(-c4ccc(Cl)cc4)cc3)cc2)Cc2ccccc21 (stereo not given) | 132 °C
41 | Cn1c(CC(=O)NO)ccc1C(=O)c1ccc(Cl)cc1 | 195 °C
42 | NNc1ccc(Cl)cc1Cl | 90 to 91 °C

Row | Compound | melting point
43 | CCCN(CCC)S(=O)(=O)c1cccc(C(=O)Nc2ccc(Br)cc2C)c1 | 135 to 136 °C
44 | CCCCn1c(=O)c2c(ncn2S(=O)(=O)c2ccc(N(OC(C)=O)C(C)=O)cc2)n(CCCC)c1=O | 155 to 157 °C
45 | C=C(C(=O)c1ccc(Cl)cc1)c1ccccc1 | 42 °C
46 | CN(C(=O)C(Br)OC(N)=O)c1ccccc1 (stereo not given) | 136 to 138 °C
47 | COCc1cnc(N)nc1N | 171 to 174 °C
48 | CCCCCCCCCCCCCCOc1ccc(CC(=O)NCCc2ccccn2)cc1 | 90 to 91 °C
49 | O=C(O)Cc1ccc2c3c(cccc13)C(c1ccccc1)C2 (stereo not given) | 200 °C
50 | N#CCCCCCn1nc(-c2c(-c3ccccc3)nn3ccccc23)ccc1=O | 120 to 122 °C
51 | C[C@@H](NS(C)(=O)=O)[C@](O)(Cn1cncn1)c1ccc(Cl)cc1Cl (relative stereo) | 177 to 180 °C
52 | CC(C)(C)c1nc2c(Cl)ccc(C(=O)O)c2o1 | 209 to 210 °C
53 | CCN(CC)CCOc1ccc(Nc2ncc3c(n2)N(C)C(=O)N(c2ccccc2)C3)cc1 | 141 to 144 °C
54 | COC(=O)c1ccc2c(nc(C)n2Cc2ccccc2)c1C(=O)OC | 192 to 195 °C
55 | C=CCCc1ccc(NC(=O)OCc2ccccc2)c(O)n1 | 179 to 180 °C
56 | COC(=O)C=Cc1[nH]c(=O)c2c(ccc3nc(Nc4c(Cl)cccc4Cl)n(C)c32)c1C | > 300 °C
57 | Cc1nc(NC(=O)Nc2ccc(F)cc2)sc1C(=O)NCc1ccccc1 | > 300 °C
58 | CCCn1nc(C(C)C)c(C(=O)OCc2ccccc2C(=O)c2ccccc2)c1Cc1ccc(-c2ccccc2S(=O)(=O)NC(C)(C)C)c(F)c1 | 49 to 51 °C
59 | COC(=O)c1c(NCC(C)C)n[nH]c1C | 100 to 103 °C
60 | COc1cc(OC)c(C)c(C(=O)NCC23CC4CC(CC(Cl)(C4)C2)C3)c1 | 173 to 175 °C
61 | Cc1cc(N2CNC(=O)C23CCN(CCCn2c(=O)[nH]c4ccccc42)CC3)ccc1Cl | 209 °C
62 | COc1ccccc1NC(=O)Nc1ccc(CC(=O)O)cc1 | 165 to 168 °C

More lines, now with the values ahead:

Row | melting point | Compound
63 | 87 to 89 °C | Cc1cc2c(s1)Oc1ccccc1N=C2N1CCN(CCO)CC1
64 | 118 to 120 °C | C=C(C)Cn1c(=O)n(C)c(=O)c2c(Sc3ccccn3)n(Cc3cccc4ccccc34)nc21
65 | 189 °C | Nc1cc(=O)n(Cc2ccc(Cl)cc2Cl)[nH]1
66 | 185 to 187 °C | Nc1nc(-c2cc(Cl)ccc2Cl)nc(N2CCN(CCO)CC2)n1
67 | 89 to 91 °C | CCOc1ccc(OCCCN2CCC(C(O)(c3ccc(F)cc3)c3ccc(F)cc3)CC2)cc1
68 | 169 to 171 °C | O=C(O)Cc1ccc2c(c1)C(=O)c1cc(Cl)ccc1CO2
69 | 159 to 160 °C | Cc1sc(-c2ccccc2)nc1CCOc1cc(COc2ccccc2CC(=O)O)on1
70 | 166 to 167 °C | CCOCOc1cc(F)ccc1-c1cc(-c2cccc([N+](=O)[O-])c2)c(C#N)c(NC(=O)c2cccs2)n1
71 | 64.1 to 65.4 °C | CCCCCS(=O)(=O)NC(=O)CCc1ccc(OCCOC)cc1OC1CCCCC1
72 | 155 °C | CCOC(=O)c1cn(CC)c2nc(N3CCNCC3)ncc2c1=O
73 | 270 to 273 °C | COc1ccc2c(c1)c(-c1cc3nccnc3[nH]1)cn2CCO
74 | 173 to 175 °C | CCN1CCCC(NC(=O)c2ccccc2Nc2ccnc3c(Cl)cccc23)C1 (stereo not given)
75 | 135 to 136 °C | C=Cc1c2c(c(C)c(C)c1N1CCN(c3ccc(OC)cc3)CC1)OC(C)(C)C2
76 | 14 °C | CCCCCCCC1=CCC(c2cc(F)c(F)c(F)c2)C=C1 (stereo not given)
77 | 92 to 97 °C | CCc1cc2c(cc1OC)C(CN1CCC(c3noc4cc(F)ccc34)CC1)=C2
78 | 146 to 147 °C | COc1cc(C(=O)O)ccc1Cc1cn(C(C)C(=O)N(C)C)c2ccc(C(=O)NCC3CCCC3)cc12 (stereo not given)
79 | 139 to 140 °C | C1=CN(Cc2ccccc2)CCC1c1cc2ccccc2o1 (stereo not given)
80 | 174 °C | COc1ccc(-c2nc(N)ncc2-c2ccc(=O)n(C(C)C)n2)cc1F
81 | > 260 °C | COc1cc(Cc2cnc(N)nc2N)cc2c1OC(C)(C)C=C2c1ccccc1

Row | melting point | Compound
82 | 234 to 236 °C | CC(C)Oc1ccc2nc3ccc(C#N)cn3c(=O)c2c1
83 | 218 to 220 °C | COc1ccc(-c2c(Cl)c(CN3C(=O)CCC3=O)nc3sc4c(c23)CCC(O)C4)cc1 (stereo not given)
84 | 60 to 69 °C | CC(=O)OCC1CC(=O)NN=C1c1ccc(N2CCOCC2)c(C#N)c1 (stereo not given)
85 | 159 to 162 °C | COc1cc([N+](=O)[O-])c(N)cc1C(=O)N1CCCC1
86 | 174 to 175 °C | N#Cc1cccc2c1CC(=O)c1cc(F)ccc1S2
87 | 107 to 109 °C | CNC(=O)CC1CN=C(c2cc3cc(Oc4ccc(S(C)(=O)=O)nc4)cc(OC(C)COC)c3[nH]2)S1 (stereo not given)
88 | 199 °C | O=c1[nH]c2cc(Cl)ccc2n1C1CCN(CCNC(c2ccc(F)cc2)c2ccc(F)cc2)CC1
89 | 127 to 130 °C | C=CCc1cccc2c(=O)cc(-c3ccc(F)c(F)c3)oc12
90 | 148 to 150 °C | Cc1ccc(C)c(CN2C(=O)c3ccccc3C2=O)c1
91 | 182 to 183 °C | CCN(CC)c1nc(Nc2ccc3cc(-c4ccccc4)c(=O)oc3c2)nc(N2CCCC(CO)C2)n1 (stereo not given)
92 | 136 °C | CSc1c(O[C@H]2CC[C@H](NCc3ccccc3)CC2)ccc2[nH]ncc12
93 | 34 to 38 °C | CCOC(=O)c1cnoc1-c1ccc(F)cc1
94 | 94 to 97 °C | COc1cnc(CSc2nc3cc(OC(F)(F)F)ccc3[nH]2)c(C)c1OC
95 | 101 °C | CCCN(CCC)C(=O)c1cc2ccccc2c(-c2ccccc2Cl)n1
96 | 123 to 125 °C | Cc1cc(F)ccc1-c1c(O)c(C)c(-c2ccccn2)oc1=O
97 | 110 to 111 °C | CCCn1nc(-c2ccc(OC)cc2)c2cccc(-c3ccc(F)cc3)c21
98 | 162 to 164 °C | O=C1NCCc2ccc(OCCCN3CCN(c4cccc(Cl)c4Cl)CC3)cc21
99 | 122 °C | O=C1N(CCCl)c2ccc(F)cc2C12SCCCS2
100 | 143 °C | Cc1cc(-c2cc(C(F)(F)F)n3ncc(C(=O)Nc4cccc(S(=O)(=O)N5CCN(C)CC5)c4)c3n2)ccc1Cl
